The supplement of paper PMC10702517
± gives the standard deviation.

Assay: chemical recovery from spiked human plasma; higher = better extraction
Conditions: pooled human plasma; extraction method: SPE only (HLB 96-well), PES comparison experiment

Row | Compound | chemical recovery [%]
1 | c1cc2c3c(c1)ccc1cccc(c13)C2 [4H-Cyclopenta(def)phenanthrene] | 19.6 ± 3.7
2 | CCCC1COC(Cn2cncn2)(c2ccc(Cl)cc2Cl)O1 (configuration not stated) [Propiconazole] | 43.1 ± 6.8
3 | COC(=O)Nc1nc2cc(C(=O)c3ccccc3)ccc2[nH]1 [Mebendazole] | 42.1 ± 5.8
4 | Cc1cccc(C)c1N(Cn1cccn1)C(=O)C[S+](C)[O-] (configuration not stated) [Metazachlor BH 479-11] | 51.8 ± 4.5
5 | COc1ccccc1Oc1c(NS(=O)(=O)c2ccc(C(C)(C)C)cc2)nc(-c2ncccn2)nc1OCCO [Bosentan] | 49.7 ± 11
6 | CCCc1nc2c(C)cc(-c3nc4ccccc4n3C)cc2n1Cc1ccc(-c2ccccc2C(=O)O)cc1 [Telmisartan] | 45.4 ± 5.1
7 | O=C1Nc2ccc(Cl)cc2C(c2ccccc2)=NC1O (configuration not stated) [Oxazepam] | 46.6 ± 6
8 | O=Cc1ccccc1Nc1ccccc1Cl [2-(2-(Chlorophenyl)amino)benzaldehyde] | 23.9 ± 4.7
9 | CCCCCCCCn1sccc1=O [2-Octyl-4-isothiazolin-3-one] | 21.6 ± 2.9
10 | Nc1ccc2c(n1)[nH]c1ccccc12 [2-Amino-9H-pyrido[2,3-b]indole (AalphaC)] | 45.3 ± 7.1
11 | CCNc1nc(NCC)nc(SC)n1 [Simetryn] | 46.7 ± 4.3
12 | CSc1nnc(C(C)(C)C)c(=O)n1N [Metribuzin] | 54.2 ± 7.9
13 | Cc1cc(O)cc(C)c1[S+](C)[O-] (configuration not stated) [Methiocarb-sulfoxide phenol] | 54.3 ± 6.8
14 | CC1(C)CC(N)CC(C)(CN)C1 (configuration not stated) [Isophorone diamine] | 4.27 ± 3.6
15 | Cc1nc(N(C)C)nc(OC(=O)N(C)C)c1C [Pirimicarb] | 41.4 ± 5.3
16 | CCCN(CCC)c1c([N+](=O)[O-])cc(S(N)(=O)=O)cc1[N+](=O)[O-] [Oryzalin] | 49.6 ± 5.5
17 | CC(C)Nc1nc(N)nc(Cl)n1 [Desethylatrazine] | 51 ± 8.1
18 | CN[C@H]1CC[C@@H](c2ccc(Cl)c(Cl)c2)c2ccccc21 [Sertraline] | 40.5 ± 8.4
19 | O=c1ccc2ccccc2[nH]1 [2-Hydroxyquinoline] | 52.9 ± 8.4
20 | C1=Cc2ccccc2Nc2ccccc21 [Iminostilbene] | 28.4 ± 4.4
21 | CCC(=O)O[C@]1(C(=O)CCl)[C@@H](C)C[C@H]2[C@@H]3CCC4=CC(=O)C=C[C@]4(C)[C@@]3(F)[C@@H](O)C[C@@]21C [Clobetasol propionate] | 44.8 ± 8.7
22 | Fc1ccc([C@@H]2CCNC[C@H]2COc2ccc3c(c2)OCO3)cc1 [Paroxetine] | 42.8 ± 9.2
23 | COCCN(C(=O)C(=O)O)c1c(C)cccc1C [Dimethachlor OA] | 51.3 ± 3.7
24 | Oc1cc(Cl)ccc1Oc1ccc(Cl)cc1Cl [Triclosan] | 40.3 ± 7.5
25 | O=P(OCCCl)(OCCCl)OCCCl [Tris(2-chloroethyl)phosphate] | 52.3 ± 5.5
26 | CN1CCN(C)C1=O [1,3-Dimethyl-2-imidazolidinone] | 13.6 ± 8.1
27 | CN(C)CCOC(c1ccccc1)c1ccccc1 [Diphenhydramine] | 50.3 ± 5.5
28 | Cc1nc2ccccc2s1 [2-Methylbenzothiazole] | 0.912 ± 0.53
29 | CN/C(=N\[N+](=O)[O-])NCc1cnc(Cl)s1 [Clothianidin] | 50.9 ± 5.5
30 | O=C1NCCN1Cc1ccc(Cl)nc1 [Imidacloprid-urea] | 51.1 ± 4.4

Same assay, conditions: pooled human plasma; extraction method: solvent precipitation (ACN + hexane)

Row | Compound | chemical recovery [%]
31 | CCCNCCOc1c(Cl)cc(Cl)cc1Cl [Prochloraz BTS403-48] | 71.2 ± 3
32 | CCCC1COC(Cn2cncn2)(c2ccc(Cl)cc2Cl)O1 (configuration not stated) [Propiconazole] | 70.3 ± 3.4
33 | COC(=O)Nc1nc2cc(C(=O)c3ccccc3)ccc2[nH]1 [Mebendazole] | 77.3 ± 3.4
34 | Cc1cccc(C)c1N(Cn1cccn1)C(=O)C[S+](C)[O-] (configuration not stated) [Metazachlor BH 479-11] | 68.7 ± 3.1
35 | COc1ccccc1Oc1c(NS(=O)(=O)c2ccc(C(C)(C)C)cc2)nc(-c2ncccn2)nc1OCCO [Bosentan] | 75.4 ± 4.9
36 | O=C1Nc2ccc(Cl)cc2C(c2ccccc2)=NC1O (configuration not stated) [Oxazepam] | 73.9 ± 3.5
37 | CCCCCCCCn1sccc1=O [2-Octyl-4-isothiazolin-3-one] | 40.8 ± 4.6
38 | Nc1ccc2c(n1)[nH]c1ccccc12 [2-Amino-9H-pyrido[2,3-b]indole (AalphaC)] | 70.8 ± 5.4
39 | CCNc1nc(NCC)nc(SC)n1 [Simetryn] | 70.9 ± 3.6
40 | Cc1nc2n(c(=O)c1CCN1CCC(c3noc4cc(F)ccc34)CC1)CCCC2 [Risperidone] | 73.2 ± 3.6
41 | CSc1nnc(C(C)(C)C)c(=O)n1N [Metribuzin] | 71.8 ± 2.9
42 | Cc1cc(O)cc(C)c1[S+](C)[O-] (configuration not stated) [Methiocarb-sulfoxide phenol] | 78.8 ± 5.1
43 | Cc1nc(N(C)C)nc(OC(=O)N(C)C)c1C [Pirimicarb] | 64.5 ± 2.5
44 | CC(C)Nc1nc(N)nc(Cl)n1 [Desethylatrazine] | 45 ± 15
45 | CN[C@H]1CC[C@@H](c2ccc(Cl)c(Cl)c2)c2ccccc21 [Sertraline] | 72.8 ± 3.8
46 | O=C(NC(=O)c1c(F)cccc1F)Nc1ccc(Cl)cc1 [Diflubenzuron] | 48.6 ± 2.1
47 | O=c1ccc2ccccc2[nH]1 [2-Hydroxyquinoline] | 78.2 ± 3.6
48 | C1=Cc2ccccc2Nc2ccccc21 [Iminostilbene] | 73.2 ± 4.5
49 | Brc1ccc(Oc2c(Br)cc(Br)cc2Br)c(Br)c1 [BDE100] | 7.72 ± 0.68
50 | Fc1ccc([C@@H]2CCNC[C@H]2COc2ccc3c(c2)OCO3)cc1 [Paroxetine] | 61.7 ± 1.7
51 | COCCN(C(=O)C(=O)O)c1c(C)cccc1C [Dimethachlor OA] | 56.8 ± 7.6
52 | Oc1cc(Cl)ccc1Oc1ccc(Cl)cc1Cl [Triclosan] | 40 ± 3.5
53 | O=P(OCCCl)(OCCCl)OCCCl [Tris(2-chloroethyl)phosphate] | 69.9 ± 2.8
54 | CN(C)CCOC(c1ccccc1)c1ccccc1 [Diphenhydramine] | 52.4 ± 4.6
55 | CN1C(=O)CC[C@H]1c1cccnc1 [Cotinine] | 80.5 ± 3.5
56 | CN/C(=N\[N+](=O)[O-])NCc1cnc(Cl)s1 [Clothianidin] | 75.8 ± 4.7
57 | O=C1NCCN1Cc1ccc(Cl)nc1 [Imidacloprid-urea] | 77.1 ± 3.8

Assay: chemical recovery into PDMS from spiked human plasma; higher = better extraction
Conditions: pooled human plasma; extraction method: PES with PDMS; equilibration time (d): 1

Row | Compound | chemical recovery into PDMS [%]
58 | CCCNCCOc1c(Cl)cc(Cl)cc1Cl [Prochloraz BTS403-48] | 0.602 ± 0.13
59 | CCCCCCCCCCCC(=O)N(CCO)CCO [Lauryl diethanolamide] | 16.8 ± 3
60 | c1cc2c3c(c1)ccc1cccc(c13)C2 [4H-Cyclopenta(def)phenanthrene] | 94.4 ± 32
61 | CCCC1COC(Cn2cncn2)(c2ccc(Cl)cc2Cl)O1 (configuration not stated) [Propiconazole] | 38.2 ± 2.5
62 | COC(=O)Nc1nc2cc(C(=O)c3ccccc3)ccc2[nH]1 [Mebendazole] | 13.7 ± 1.6
63 | Cc1cccc(C)c1N(Cn1cccn1)C(=O)C[S+](C)[O-] (configuration not stated) [Metazachlor BH 479-11] | 5.75 ± 0.43
64 | CCCc1nc2c(C)cc(-c3nc4ccccc4n3C)cc2n1Cc1ccc(-c2ccccc2C(=O)O)cc1 [Telmisartan] | 0.144 ± 0.041
65 | O=C1Nc2ccc(Cl)cc2C(c2ccccc2)=NC1O (configuration not stated) [Oxazepam] | 1.81 ± 0.18
66 | O=Cc1ccccc1Nc1ccccc1Cl [2-(2-(Chlorophenyl)amino)benzaldehyde] | 36.6 ± 1.5
67 | CCCCCCCCn1sccc1=O [2-Octyl-4-isothiazolin-3-one] | 33.3 ± 1.9
68 | Nc1ccc2c(n1)[nH]c1ccccc12 [2-Amino-9H-pyrido[2,3-b]indole (AalphaC)] | 3 ± 0.11
69 | CCNc1nc(NCC)nc(SC)n1 [Simetryn] | 21.2 ± 8.1
70 | Cc1nc2n(c(=O)c1CCN1CCC(c3noc4cc(F)ccc34)CC1)CCCC2 [Risperidone] | 0.00139 ± 0.0024
71 | CSc1nnc(C(C)(C)C)c(=O)n1N [Metribuzin] | 25 ± 2.2
72 | Cc1cc(O)cc(C)c1[S+](C)[O-] (configuration not stated) [Methiocarb-sulfoxide phenol] | 18.7 ± 0.39
73 | CC1(C)CC(N)CC(C)(CN)C1 (configuration not stated) [Isophorone diamine] | 0.00705 ± 0.025
74 | Cc1nc(N(C)C)nc(OC(=O)N(C)C)c1C [Pirimicarb] | 29.3 ± 1.2
75 | CCCN(CCC)c1c([N+](=O)[O-])cc(S(N)(=O)=O)cc1[N+](=O)[O-] [Oryzalin] | 6.21 ± 0.56
76 | CC(C)Nc1nc(N)nc(Cl)n1 [Desethylatrazine] | 11.2 ± 0.61
77 | CN[C@H]1CC[C@@H](c2ccc(Cl)c(Cl)c2)c2ccccc21 [Sertraline] | 0.493 ± 0.065
78 | c1ccc2ncccc2c1 [Quinoline] | 8.77 ± 5.3
79 | O=C(NC(=O)c1c(F)cccc1F)Nc1ccc(Cl)cc1 [Diflubenzuron] | 36.3 ± 2.5
80 | O=c1ccc2ccccc2[nH]1 [2-Hydroxyquinoline] | 10.9 ± 0.65
81 | C1=Cc2ccccc2Nc2ccccc21 [Iminostilbene] | 2.55 ± 1.2
82 | CCC(=O)O[C@]1(C(=O)CCl)[C@@H](C)C[C@H]2[C@@H]3CCC4=CC(=O)C=C[C@]4(C)[C@@]3(F)[C@@H](O)C[C@@]21C [Clobetasol propionate] | 28.2 ± 4.4
